Results: ChEMBL document CHEMBL5257035, “Nucleoside Derived Antibiotics to Fight Microbial Drug Resistance: New Utilities for an Established Class of Drugs?” (J Med Chem, 2016)
≈ marks a conversion by molar mass, not a printed value.

Tested on: not listed separately
Assay: Cytotoxicity against human HepG2 cells assessed as reduction in cell viability incubated for 72 hrs by MTT assay
Format: toxicity, cell-based

SMILES	IC50 at 72 h [µg/mL]
CCCCCCCCCCCCCCC[C@H](NC(=O)[C@@H](NC(=O)N[C@H](C(=O)O)C(C)C)[C@@H]1CCNC(=N)N1)C(=O)NCCCNC(C(=O)O)[C@H](O[C@@H]1O[C@H](CN)[C@@H](O)[C@H]1O)[C@H]1O[C@@H](n2ccc(=O)[nH]c2=O)[C@H](O)[C@@H]1O (stereo partly drawn)	> 100
CC(C)C[C@@H](NC(=O)[C@@H](NC(=O)N[C@H](C(=O)O)C(C)C)[C@@H]1CCNC(=N)N1)C(=O)NCCCNC(C(=O)O)[C@H](O[C@@H]1O[C@H](CN)[C@@H](O)[C@H]1O)[C@H]1O[C@@H](n2ccc(=O)[nH]c2=O)[C@H](O)[C@@H]1O (stereo partly drawn)	> 100
CC(C)[C@H](NC(=O)N[C@H](C(=O)N[C@H](CCCCCCCc1ccc(-c2ccccc2)cc1)C(=O)NCCCNC(C(=O)O)[C@H](O[C@@H]1O[C@H](CN)[C@@H](O)[C@H]1O)[C@H]1O[C@@H](n2ccc(=O)[nH]c2=O)[C@H](O)[C@@H]1O)[C@@H]1CCNC(=N)N1)C(=O)O (stereo partly drawn)	> 100
CC(C)[C@H](NC(=O)N[C@H](C(=O)N[C@@H](CCCCCCCc1ccc(-c2ccccc2)cc1)C(=O)NCCCNC(C(=O)O)[C@H](O[C@@H]1O[C@H](CN)[C@@H](O)[C@H]1O)[C@H]1O[C@@H](n2ccc(=O)[nH]c2=O)[C@H](O)[C@@H]1O)[C@@H]1CCNC(=N)N1)C(=O)O (stereo partly drawn)	> 100
CCCCOc1ccc(-c2ccc(CC[C@H](NC(=O)[C@@H](NC(=O)N[C@H](C(=O)O)C(C)C)[C@@H]3CCNC(=N)N3)C(=O)NCCCNC(C(=O)O)[C@H](O[C@@H]3O[C@H](CN)[C@@H](O)[C@H]3O)[C@H]3O[C@@H](n4ccc(=O)[nH]c4=O)[C@H](O)[C@@H]3O)cc2)cc1 (stereo partly drawn)	> 100
CCCCOc1ccc(-c2ccc(CC[C@@H](NC(=O)[C@@H](NC(=O)N[C@H](C(=O)O)C(C)C)[C@@H]3CCNC(=N)N3)C(=O)NCCCNC(C(=O)O)[C@H](O[C@@H]3O[C@H](CN)[C@@H](O)[C@H]3O)[C@H]3O[C@@H](n4ccc(=O)[nH]c4=O)[C@H](O)[C@@H]3O)cc2)cc1 (stereo partly drawn)	> 100

Tested on: Pseudomonas aeruginosa
Assay: Antibacterial activity against Pseudomonas aeruginosa assessed as bacterial growth reduction
Format: functional

MIC [µg/mL]	SMILES
16 (≈ 18.1 µM)	C[C@@H]([C@H](NC(=O)[C@H](Cc1ccccc1)NC(=O)N[C@@H](Cc1c[nH]c2ccccc12)C(=O)O)C(=O)NCC1C[C@@H](O)[C@H](n2ccc(=O)[nH]c2=O)O1)N(C)C(=O)[C@@H](N)Cc1ccc(O)cc1 (stereo partly drawn)
8 (≈ 10.3 µM)	C[C@@H]([C@H](NC(=O)[C@H](Cc1ccccc1)NC(=O)N[C@@H](Cc1c[nH]c2ccccc12)C(=O)O)C(=O)NC[C@H]1C[C@@H](O)[C@H](n2ccc(=O)[nH]c2=O)O1)N(C)C(=O)CN
16 (≈ 20.3 µM)	C[C@H](N)C(=O)N(C)[C@@H](C)[C@H](NC(=O)[C@H](Cc1ccccc1)NC(=O)N[C@@H](Cc1c[nH]c2ccccc12)C(=O)O)C(=O)NCC1C[C@@H](O)[C@H](n2ccc(=O)[nH]c2=O)O1 (stereo partly drawn)

Tested on: Candida albicans
Assay: Inhibition of Candida albicans chitin synthase at 1 uM relative to control

SMILES	inhibition [%]
O=C(NCCCNC(=O)[C@@H](O)[C@H](O)C(=O)NC[C@H]1O[C@@H](n2ccc(=O)[nH]c2=O)[C@H](O)[C@@H]1O)[C@@H](O)[C@H](O)C(=O)NC[C@H]1O[C@@H](n2ccc(=O)[nH]c2=O)[C@H](O)[C@@H]1O	10
O=C(NCCNC(=O)[C@@H](O)[C@H](O)C(=O)NC[C@H]1O[C@@H](n2ccc(=O)[nH]c2=O)[C@H](O)[C@@H]1O)[C@@H](O)[C@H](O)C(=O)NC[C@H]1O[C@@H](n2ccc(=O)[nH]c2=O)[C@H](O)[C@@H]1O	5

Now from value to compound:

inhibition [%]	SMILES
20	NC(=O)[C@@H](O)[C@H](O)C(=O)NC[C@H]1O[C@@H](n2ccc(=O)[nH]c2=O)[C@H](O)[C@@H]1O
35	O=C(NC[C@H]1O[C@@H](n2ccc(=O)[nH]c2=O)[C@H](O)[C@@H]1O)[C@@H](O)[C@H](O)C(=O)NC[C@H]1O[C@@H](n2ccc(=O)[nH]c2=O)[C@H](O)[C@@H]1O
12	NC(=O)[C@H](O)[C@@H](O)C(=O)NC[C@H]1O[C@@H](n2ccc(=O)[nH]c2=O)[C@H](O)[C@@H]1O

Molecular target: T1, Phospho-N-acetylmuramoyl-pentapeptide-transferase (Escherichia coli, UniProt E2QF15)
T1 sequence (E2QF15 whole entry): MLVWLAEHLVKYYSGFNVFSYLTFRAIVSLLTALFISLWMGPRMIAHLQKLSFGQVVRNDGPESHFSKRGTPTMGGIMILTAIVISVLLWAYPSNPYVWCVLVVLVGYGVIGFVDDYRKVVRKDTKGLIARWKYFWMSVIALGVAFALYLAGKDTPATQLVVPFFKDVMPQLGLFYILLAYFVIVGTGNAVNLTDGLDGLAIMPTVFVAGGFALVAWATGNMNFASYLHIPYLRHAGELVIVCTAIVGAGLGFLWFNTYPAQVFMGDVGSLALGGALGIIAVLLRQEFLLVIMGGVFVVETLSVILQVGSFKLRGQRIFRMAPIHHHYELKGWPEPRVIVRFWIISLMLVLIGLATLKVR
Assay: Inhibition of MraY in Escherichia coli

IC50 [µM]	SMILES
25	NC[C@H]1O[C@@H](OC[C@H]2O[C@@H](n3ccc(=O)[nH]c3=O)[C@H](O)[C@@H]2O)[C@H](O)[C@@H]1O

Tested on: not listed separately
Assay: Inhibition of Bacterial MraY
Design: species or system Bacteria

IC50 [µM]	SMILES
50	NC[C@H]1O[C@@H](OC[C@H]2O[C@@H](n3ccc(=O)[nH]c3=O)[C@H](O)[C@@H]2O)[C@H](O)[C@@H]1O

Molecular target: T2, Phospho-N-acetylmuramoyl-pentapeptide-transferase (Escherichia coli K-12, UniProt P0A6W3)
T2 sequence (P0A6W3 whole entry): T1 sequence (E2QF15 whole entry)
Assay: Inhibition of MraY in Escherichia coli K12

IC50 [µM]	SMILES
10	NC[C@H]1O[C@@H](OC[C@H]2O[C@@H](n3ccc(=O)[nH]c3=O)[C@H](O)[C@@H]2O)[C@H](O)[C@@H]1O
10	NC[C@H]1O[C@@H](OC[C@H]2O[C@@H](n3ccc(=O)[nH]c3=O)C[C@@H]2O)[C@H](O)[C@@H]1O
